Measured values published in patent US20060116505A1, “Glucose and/or fructose transporter naglt1 and its gene” (priority 2002, published 2006).

How the values were obtained:
[1] = tested on: renal brush border membrane vesicles; test: Na+-dependent uptake of [14C] fructose by renal brush border membrane vesicles; format: biochemical, rat; conditions: [14C] fructose 2 mM, 15 seconds at 25° C., glucose analog 30 mM, phloridzin or phloretin 50 μM; for Na+-dependent uptake of [14C] fructose by renal brush border membrane vesicles: KCl uptake deducted
[2] = target: T1, rNaGLT1 (Rattus norvegicus, UniProt Q80T22, M166I/S3F); test: Uptake of [14C] fructose by HEK293 cells transfected with rNaGLT1; format: cell-based; conditions: [14C] fructose 0.1 mM, 15 minutes at 37° C., glucose analog 30 mM, phloridzin or phloretin 50 μM; for Uptake of [14C] fructose by HEK293 cells expressing rNaGLT1: vector uptake deducted
T1 construct: expressed in transfected cells; host or cells: HEK293 cells, transient transfection, assayed 2 days later
T1 sequence (Q80T22 1-484 S3F/M166I): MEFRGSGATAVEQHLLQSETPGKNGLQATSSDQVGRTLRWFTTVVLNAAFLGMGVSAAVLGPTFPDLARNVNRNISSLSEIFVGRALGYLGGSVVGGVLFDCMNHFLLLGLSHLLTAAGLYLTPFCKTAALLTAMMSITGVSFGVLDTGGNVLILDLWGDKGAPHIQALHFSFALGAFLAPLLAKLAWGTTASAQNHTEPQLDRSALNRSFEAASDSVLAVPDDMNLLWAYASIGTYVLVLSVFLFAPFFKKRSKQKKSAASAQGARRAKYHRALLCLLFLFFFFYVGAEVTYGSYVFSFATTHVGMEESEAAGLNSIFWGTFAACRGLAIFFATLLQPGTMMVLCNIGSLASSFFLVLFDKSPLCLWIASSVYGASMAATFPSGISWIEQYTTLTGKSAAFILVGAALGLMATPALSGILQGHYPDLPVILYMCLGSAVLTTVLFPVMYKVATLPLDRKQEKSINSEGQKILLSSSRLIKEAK

[3] = target: T2, NaGLT1 (Rattus norvegicus, UniProt Q80T22, M166I/S3F); test: Effect of inhibitors on uptake of [14C]-labeled αMeGlc by NaGLT1-expressing oocytes; format: cell-based
T2 construct: expressed in transfected cells; host or cells: Xenopus oocytes injected with NaGLT1 RNA synthesized in vitro
T2 sequence (Q80T22 1-484 S3F/M166I): T1 sequence (Q80T22 1-484 S3F/M166I)
Method: (§1) Uptake activity of NaGLT1 cRNA-injected cell and water-injected oocyte to [U-^14C]-α-methyl-D-glucopyranoside (α-MeGlc), D-[1-^14C] galactose, D-[U-^14C] mannose, D-[U-^14C] fructose, [1,2-^3H]-2-deoxy-glucose, D-[1-^3H] mannitol, [U-^14C] sucrose was measured. At that time, incubation was conducted in a buffer solution comprising 96 mM NaCl, 2 mM KCl, 1.8 mM CaCl2, 1 mM MgCl2, 5 mM HEPES (pH 7.4). Further, when extracellular Na^+ concentration dependency was conducted, the concentration of NaCl was adjusted to be within the range of 9.6 to 96 mM, and the final osmotic pressure was kept constant by making up for the shortage to 96 mM with choline chloride (FIGS. 6 and 7).

[4] = target: T2, NaGLT1; test: Uptake of radio-labeled saccharides by NaGLT1-expressing Xenopus oocytes; format: cell-based
Method: Transportation activity of NaGLT1 was examined with the expression system of Xenopus oocytes (hereinafter abbreviated as oocytes). First, in order to examine the selectivity of various saccharides, NaGLT1 RNA synthesized in vitro was injected into the oocyte and incubated for 2 days at 18° C., then used for the experiment.
as §1
Next, concentration dependency of αMeGlc uptake was examined by using NaGLT1-expressing oocytes. […] In addition, the effect of extracellular Na^+ ion concentration on the uptake of αMeGlc mediated by NaGLT1 was analyzed. First, extracellular Na^+ concentration was varied from 0 to 96 mM, at the state wherein membrane potential difference was eliminated by the addition of 7 μM valinomycin, and the effect of extracellular Na^+ on the uptake of αMeGlc by rNaGLT1 was examined. […] Further, by examination of dose- or extracellular Na^+-dependancy to the uptake of αMeGlc by rNaGLT1 (FIGS. 6A and 6C), Vmax value (the maximum transport rate) and Km value were calculated for each case. Based on those values, Hill plot (logarithmic values of the figure calculated by dividing Vmax by transport rate V when the abscissa axis is the concentration of varied substrate or ion, and ordinate axis is each substrate (or ion) concentration) was conducted (FIGS. 6B and 6D) and Hill coefficient was calculated. […]

| Uptake of [14C] fructose by HEK293 cells expressing rNaGLT1, % of control [2] | Uptake of [14C] fructose by HEK293 cells expressing rNaGLT1 [2] [Pmol/mg protein/min] | effect on the uptake of [14C]-labeled αMeGlc [3] | Hill coefficient ([4]; Hill plot of αMeGlc uptake by rNaGLT1, dose- or extracellular Na+-dependency) | Km ([4]; NaGLT1-expressing oocytes, concentration dependency, read-out: Km value of αMeGlc uptake) [mM] | uptake of radio-labeled saccharide in comparison to water-injected oocytes ([4]; NaGLT1 RNA-injected Xenopus oocytes, incubated 2 days at 18° C.) | Structure (SMILES) | Na+-dependent uptake of [14C] fructose by renal brush border membrane vesicles, % of control [1] | Na+-dependent uptake of [14C] fructose by renal brush border membrane vesicles [1] [Pmol/mg protein/sec] |
| --- | --- | --- | --- | --- | --- | --- | --- | --- |
| 144 % of control | 4.20 ± 0.17 | – | – | – | – | OC[C@H]1O[C@@](CO)(O[C@H]2O[C@H](CO)[C@@H](O)[C@H](O)[C@H]2O)[C@@H](O)[C@@H]1O [Sucrose, sucrose] | 96 % of control | 47.3 ± 6.0 |
| 70 % of control | 2.04 ± 0.19 | extremely strong inhibitory effect | – | – | – | O=CC[C@@H](O)[C@H](O)[C@H](O)CO [2-DG, 2-deoxyglucose] | 34 % of control | 16.8 ± 3.7 |
| 40 % of control | 1.16 ± 0.16 | – | – | – | – | OC[C@H]1O[C@H](CO)[C@@H](O)[C@@H]1O [2,5-AM] | 78 % of control | 38.6 ± 2.6 |
| – | – | no effect | – | – | – | O=C[C@@H](O)[C@H](O)[C@@H](O)[C@@H](O)CO [L-glucose] | – | – |
| 42 % of control | 1.24 ± 0.13 | extremely strong inhibitory effect | 1.06 | 3.71 ± 0.09 | significantly high | CO[C@H]1O[C@H](CO)[C@@H](O)[C@H](O)[C@H]1O [αMeGlc, α-methyl-D-glucopyranoside] | 48 % of control | 23.8 ± 2.1 |
| 89 % of control | 2.60 ± 0.15 | no effect | – | – | – | CO[C@@H]([C@H](O)[C@H](O)CO)[C@@H](O)C=O [3-OMG, 3-O-methylglucose] | 95 % of control | 47.1 ± 4.5 |
| 99 % of control | 2.88 ± 0.23 | no effect | – | – | – | O=C[C@H](O)[C@@H](O)[C@@H](O)[C@H](O)CO [Galactose, galactose] | 71 % of control | 35.2 ± 3.3 |
| 12 % of control | – | – | – | – | – | O=C(CCc1ccc(O)cc1)c1c(O)cc(O)cc1O[C@@H]1O[C@H](CO)[C@@H](O)[C@H](O)[C@H]1O [Phloridzin, phloridzin] | – | – |
| – | – | extremely strong inhibitory effect | – | – | – | O=C[C@H](O)[C@@H](O)[C@H](O)[C@H](O)CO [D-glucose] | – | – |

| Structure (SMILES) | Uptake of [14C] fructose by HEK293 cells expressing rNaGLT1, % of control [2] | Uptake of [14C] fructose by HEK293 cells expressing rNaGLT1 [2] [Pmol/mg protein/min] | effect on the uptake of [14C]-labeled αMeGlc [3] | Hill coefficient ([4]; Hill plot of αMeGlc uptake by rNaGLT1, dose- or extracellular Na+-dependency) | Km ([4]; NaGLT1-expressing oocytes, concentration dependency, read-out: Km value of αMeGlc uptake) [mM] | uptake of radio-labeled saccharide in comparison to water-injected oocytes ([4]; NaGLT1 RNA-injected Xenopus oocytes, incubated 2 days at 18° C.) | Na+-dependent uptake of [14C] fructose by renal brush border membrane vesicles, % of control [1] | Na+-dependent uptake of [14C] fructose by renal brush border membrane vesicles [1] [Pmol/mg protein/sec] |
| --- | --- | --- | --- | --- | --- | --- | --- | --- |
| O=C(CCc1ccc(O)cc1)c1c(O)cc(O)cc1O [Phloretin, phloretin] | 33 % of control | 0.97 ± 0.09 | weak inhibitory effect | – | – | – | 72 % of control | 35.8 ± 3.5 |
| O=C(CO)[C@@H](O)[C@H](O)[C@H](O)CO [Fructose, fructose] | 8 % of control | 0.22 ± 0.06 | weak inhibitory effect | – | – | – | 11 % of control | 5.4 ± 2.1 |
